The record followed here is patent US10781420B2, “Method for producing cerebellar progenitor tissue” (RIKEN, priority 2014, dated 2020).

Common to all, as to format: cell-based
Assay [1] has as its system Human pluripotent stem cell aggregates. The assay can be described thus: Self-formation of cerebellar plate tissue (Kirrel2 positive neuroepithelium) from human pluripotent stem cell aggregates. The settings on record: day 35; cells exposed to Fgf2. As for the experimental part:
The was aggregates were transferred to a low-cell-adhesion 10 cm dish on and after day 21, and cultured in a neural culture medium (Neurobasal/GlutaMaxI/N2, all Life Technologies). On day 28 of culturing, the total amount of the medium was exchanged with the same neural culture medium, and differentiation of the tissue was analyzed by the immunofluorescence method on day 35 of culturing.
Separated Kirrel2 positive cells, and cerebellar granule cell progenitors prepared from the upper rhombic lip of embryonic day 14 mouse were dispersed into single cells by cell dispersion enzyme (TrypLE, Life Technologies), and cocultured on a cover glass coated with poly D-lysine/laminin in DMEM/F12/10% FBS medium (5% CO2, 37° C.). In coculture, human pluripotent stem cell-derived Kirrel positive cells (1 vol) relative to mouse-derived cerebellar granule cell progenitors (10 vol) were mixed. After 6-12 hr, DMEM/F12/N2/BSA/Tri-iodothyronine (T3) was added to decrease the FBS concentration to about 0.8%.

In the next assay the test system is Human ES cells (KhES-1). The assay is described as follows: Differentiation of human ES cell aggregates (SFEBq method) into midbrain-hindbrain boundary neural progenitors. As for the experimental part:
Human ES cells (KhES-1) subjected to maintenance culturing on MEF by a conventional method were used. To differentiate human ES cells by the serum-free floating culture of embryoid body-like aggregates with quick reaggregation (SFEBq method), human ES cells were enzymatically dispersed to single cells, according to the method of Nakano et al. (Cell Stem Cell, 10(6), 771-785, 2012), and reaggregated using a low-cell-adhesive V-bottom 96 well plate (SUMITOMO BAKELITE). 6,000 cells were seeded per well, and cultured in, as a differentiation medium, CDM medium [chemical synthesis medium without a growth factor (growth-factor-free Chemically Defined Medium; gfCDM; Wataya et al., Proc. Natl. Acad. Sci. USA, 105, 11796-11801, 2008) supplemented with insulin (7 μg/ml) and apo-transferrin (15 μg/ml)] under 5% CO2 at 37° C.
The seeding day is taken as day 0 of differentiation culturing. […] […] On day 7, ⅓ of the medium was exchanged with a differentiation medium free of Y-27632, SB431542 and Fgf2. On day 14 of culturing, the medium was completely substituted by a differentiation medium free of Y-27632, SB431542 and FGF2. The cell aggregates were fixed and sliced, and tissue differentiation was analyzed by the immunofluorescence method and quantitative PCR method.

The subject of assay [2] is Purkinje cells induced from human pluripotent stem cell aggregates. The assay is described as follows: Patch clamp analysis of Purkinje cells induced from human pluripotent stem cells. Particulars: AMPA receptor inhibitor. As for the experimental part:
Mature Purkinje cells were differentiated from human pluripotent stem cell aggregates according to the method of Example 3. Using the Patch clamp technique, the electrophysiological reaction thereof was analyzed.
A general note: In patch-clamp work, channel activity is measured electrically.

Setting [3] is: FGF2 50 ng/ml day 2 to day 7 vs Fgf2 non-addition, quantitative PCR.

In the case of “FGF2: known cytokine also called basic fibroblast growth factor (bFGF); first fibroblast growth factor”, the “kirrel2 positive cells (FACS, anti-kirrel2 antibody)” value in assay [1] is ~30%. The “differentiation into neural progenitors in the midbrain-hindbrain boundary” value in the assay with Human ES cells (KhES-1) (FGF2 20 ng/ml) is recorded as “promoted differentiation into neural progenitors in the midbrain-hindbrain boundary”; in the assay with Human ES cells (KhES-1) (FGF2 100 ng/ml), “promoted differentiation into neural progenitors in the midbrain-hindbrain boundary”; in the assay with Human ES cells (KhES-1) (FGF2 5-10 ng/ml (concentration used for maintenance culturing of ES cells)), “did not show promotion of differentiation”; in the assay with Human ES cells (KhES-1) (FGF2 added days 2-7) it was “showed the highest effect”; in the assay with Human ES cells (KhES-1) (FGF2 added days 2-14), “exhibited a promoting effect”; in the assay on Human ES cells (KhES-1) (FGF2 added days 3-7) it was “exhibited a promoting effect”. Besides, the results for the “differentiation into neural progenitors in the midbrain-hindbrain boundary” value with Human ES cells (KhES-1) (FGF2 added days 4-7), in the assay with Human ES cells (KhES-1) (FGF2 added from day 0) and in the assay on Human ES cells (KhES-1) (FGF2 added from day 1) were “exhibited a promoting effect”, “remarkable promotion of differentiation into neural progenitors in the midbrain-hindbrain boundary was not observed” and “remarkable promotion of differentiation into neural progenitors in the midbrain-hindbrain boundary was not observed”, respectively. Besides, the “expression of forebrain markers Six3 and Otx2” value with Human ES cells (KhES-1) (setting [3]) is listed as “suppressed”. Also, in the assay with Human ES cells (KhES-1) (setting [3]), the “expression of midbrain-hindbrain boundary markers En2, Gbx2” value is given as “markedly increased”. Further, the “expression of Fgf8 and Wntl (isthmic organizer)” value with Human ES cells (KhES-1) (FGF2 addition, days 10 and 14) is “enhanced”.
Consider `NS(=O)(=O)c1cccc2c1c([N+](=O)[O-])cc1nc(O)c(O)nc12` [NBQX], for which the “miniature excitatory postsynaptic current” value in assay [2] is on record as “suppression of miniature excitatory postsynaptic current”.
